Holding throughout (experiment): relative viability (nuclei count vs DMSO), 5 days (fraction); higher = more cells survive
Compound in the assay “Omipalisib + Foretinib”: COc1ncc(-c2ccc3nccc(-c4ccnnc4)c3c2)cc1NS(=O)(=O)c1ccc(F)cc1F [Omipalisib] + COc1cc2c(Oc3ccc(NC(=O)C4(C(=O)Nc5ccc(F)cc5)CC4)cc3F)ccnc2cc1OCCCN1CCOCC1 [Foretinib] (partner 0.25 µM)
The procedure, abridged:
(§1)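 Relative viability was taken as the ratio of nuclei in treated wells to nuclei in vehicle wells. Lung cancer cell lines in 1536-well plates received compounds by pin tool one day after seeding, either one drug alone or a fixed anchor-drug dose plus five library-drug doses (not always all listed) in √10 steps. Nuclei were counted on 4× images after 5 days of treatment, and values are medians of duplicate plates.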

Compound in the assay “Omipalisib + Pemetrexed”: COc1ncc(-c2ccc3nccc(-c4ccnnc4)c3c2)cc1NS(=O)(=O)c1ccc(F)cc1F [Omipalisib] + Nc1nc2[nH]cc(CCc3ccc(C(=O)N[C@@H](CCC(=O)O)C(=O)O)cc3)c2c(=O)[nH]1 [Pemetrexed] (partner 0.2 µM)
The procedure, abridged: as §1

Compound in the assay “Omipalisib + Navitoclax”: COc1ncc(-c2ccc3nccc(-c4ccnnc4)c3c2)cc1NS(=O)(=O)c1ccc(F)cc1F [Omipalisib] + CC1(C)CCC(c2ccc(Cl)cc2)=C(CN2CCN(c3ccc(C(=O)NS(=O)(=O)c4ccc(N[C@H](CCN5CCOCC5)CSc5ccccc5)c(S(=O)(=O)C(F)(F)F)c4)cc3)CC2)C1 [Navitoclax] (partner 0.5 µM)
The procedure, abridged:
as §1

Compound in the assay “Omipalisib + Linsitinib”: COc1ncc(-c2ccc3nccc(-c4ccnnc4)c3c2)cc1NS(=O)(=O)c1ccc(F)cc1F [Omipalisib] + C[C@]1(O)C[C@@H](c2nc(-c3ccc4ccc(-c5ccccc5)nc4c3)c3c(N)nccn32)C1 [Linsitinib] (partner 1 µM)
The procedure, abridged: as §1

Compound in the assay “Omipalisib + Dasatinib”: COc1ncc(-c2ccc3nccc(-c4ccnnc4)c3c2)cc1NS(=O)(=O)c1ccc(F)cc1F [Omipalisib] + Cc1nc(Nc2ncc(C(=O)Nc3c(C)cccc3Cl)s2)cc(N2CCN(CCO)CC2)n1 [Dasatinib] (partner 0.075 µM)
The procedure, abridged:
as §1

Compound in the assay “Omipalisib + Decitabine”: COc1ncc(-c2ccc3nccc(-c4ccnnc4)c3c2)cc1NS(=O)(=O)c1ccc(F)cc1F [Omipalisib] + Nc1ncn([C@H]2C[C@H](O)[C@@H](CO)O2)c(=O)n1 [Decitabine] (partner 2 µM)
The procedure, abridged: as §1

Turning to HARA, the relative viability amounted to 0.928 with Omipalisib + Foretinib (first compound 0.0003 µM); 0.897 in the assay with Omipalisib + Foretinib (first compound 0.003 µM); 0.26 with Omipalisib + Foretinib (first compound 0.03 µM); 0.274 in the assay with Omipalisib + Pemetrexed (first compound 0.0003 µM); 0.272 with Omipalisib + Pemetrexed (first compound 0.003 µM); 0.21 in the assay with Omipalisib + Pemetrexed (first compound 0.03 µM). Further, the relative viability with Omipalisib + Navitoclax (first compound 0.0003 µM) was 1.1; with Omipalisib + Navitoclax (first compound 0.003 µM) it was 1.19; in the assay with Omipalisib + Navitoclax (first compound 0.03 µM) it was 0.733; in the assay with Omipalisib + Linsitinib (first compound 0.0003 µM), 0.949; in the assay with Omipalisib + Linsitinib (first compound 0.003 µM), 0.691; with Omipalisib + Linsitinib (first compound 0.03 µM), 0.275. The relative viability with Omipalisib + Dasatinib (first compound 0.0003 µM) was 0.291; with Omipalisib + Dasatinib (first compound 0.003 µM), 0.288; with Omipalisib + Dasatinib (first compound 0.03 µM), 0.187; in the assay with Omipalisib + Decitabine (first compound 0.0003 µM) it was 0.471; with Omipalisib + Decitabine (first compound 0.003 µM), 0.394; in the assay with Omipalisib + Decitabine (first compound 0.03 µM) it was 0.258.

Consider NCI-H2087, for which the relative viability with Omipalisib + Foretinib (first compound 0.0003 µM) was determined as 1.17; in the assay with Omipalisib + Foretinib (first compound 0.003 µM), 0.809; with Omipalisib + Foretinib (first compound 0.03 µM), 0.557; with Omipalisib + Pemetrexed (first compound 0.0003 µM), 0.646; with Omipalisib + Pemetrexed (first compound 0.003 µM), 0.558; with Omipalisib + Pemetrexed (first compound 0.03 µM), 0.597. In addition, the relative viability with Omipalisib + Navitoclax (first compound 0.0003 µM) is 0.918; with Omipalisib + Navitoclax (first compound 0.003 µM), 0.749; in the assay with Omipalisib + Navitoclax (first compound 0.03 µM) it was 0.535; in the assay with Omipalisib + Linsitinib (first compound 0.0003 µM), 1.15; with Omipalisib + Linsitinib (first compound 0.003 µM), 0.909; in the assay with Omipalisib + Linsitinib (first compound 0.03 µM), 0.854. The relative viability was 0.8 with Omipalisib + Dasatinib (first compound 0.0003 µM); 0.566 in the assay with Omipalisib + Dasatinib (first compound 0.003 µM); 0.614 with Omipalisib + Dasatinib (first compound 0.03 µM); 0.327 with Omipalisib + Decitabine (first compound 0.0003 µM); 0.192 in the assay with Omipalisib + Decitabine (first compound 0.003 µM); 0.125 in the assay with Omipalisib + Decitabine (first compound 0.03 µM).

Consider H3255, for which the relative viability worked out at 0.731 with Omipalisib + Foretinib (first compound 0.0003 µM); 0.669 with Omipalisib + Foretinib (first compound 0.003 µM); 0.494 with Omipalisib + Foretinib (first compound 0.03 µM); 0.576 with Omipalisib + Pemetrexed (first compound 0.0003 µM); 0.577 with Omipalisib + Pemetrexed (first compound 0.003 µM); 0.469 with Omipalisib + Pemetrexed (first compound 0.03 µM). The relative viability was 0.495 with Omipalisib + Navitoclax (first compound 0.0003 µM); 0.362 with Omipalisib + Navitoclax (first compound 0.003 µM); 0.201 with Omipalisib + Navitoclax (first compound 0.03 µM); 0.999 in the assay with Omipalisib + Linsitinib (first compound 0.0003 µM); 0.888 with Omipalisib + Linsitinib (first compound 0.003 µM); 0.485 with Omipalisib + Linsitinib (first compound 0.03 µM). Moreover, the relative viability turned out to be 0.336 in the assay with Omipalisib + Dasatinib (first compound 0.0003 µM); 0.325 with Omipalisib + Dasatinib (first compound 0.003 µM); 0.257 with Omipalisib + Dasatinib (first compound 0.03 µM); 0.534 with Omipalisib + Decitabine (first compound 0.0003 µM); 0.471 in the assay with Omipalisib + Decitabine (first compound 0.003 µM); 0.305 with Omipalisib + Decitabine (first compound 0.03 µM).

Regarding LXF-289, the relative viability with Omipalisib + Foretinib (first compound 0.0003 µM) stood at 0.977; with Omipalisib + Foretinib (first compound 0.003 µM), 0.912; with Omipalisib + Foretinib (first compound 0.03 µM), 0.626; with Omipalisib + Pemetrexed (first compound 0.0003 µM), 0.938; with Omipalisib + Pemetrexed (first compound 0.003 µM), 1.05; in the assay with Omipalisib + Pemetrexed (first compound 0.03 µM) it was 0.804. Also, the relative viability with Omipalisib + Navitoclax (first compound 0.0003 µM) turned out to be 0.947; with Omipalisib + Navitoclax (first compound 0.003 µM), 1; with Omipalisib + Navitoclax (first compound 0.03 µM), 0.739; with Omipalisib + Linsitinib (first compound 0.0003 µM) it was 0.961; with Omipalisib + Linsitinib (first compound 0.003 µM), 1; in the assay with Omipalisib + Linsitinib (first compound 0.03 µM), 0.793. In addition, the relative viability was 0.235 with Omipalisib + Dasatinib (first compound 0.0003 µM); 0.119 in the assay with Omipalisib + Dasatinib (first compound 0.003 µM); 0.0562 with Omipalisib + Dasatinib (first compound 0.03 µM); 0.365 with Omipalisib + Decitabine (first compound 0.0003 µM); 0.371 with Omipalisib + Decitabine (first compound 0.003 µM); 0.281 with Omipalisib + Decitabine (first compound 0.03 µM).

As to NCI-H441, the relative viability was determined as 0.761 in the assay with Omipalisib + Foretinib (first compound 0.0003 µM); 0.657 with Omipalisib + Foretinib (first compound 0.003 µM); 0.434 in the assay with Omipalisib + Foretinib (first compound 0.03 µM); 0.294 in the assay with Omipalisib + Pemetrexed (first compound 0.0003 µM); 0.283 with Omipalisib + Pemetrexed (first compound 0.003 µM); 0.237 with Omipalisib + Pemetrexed (first compound 0.03 µM). Further, the relative viability was found to be 0.547 with Omipalisib + Navitoclax (first compound 0.0003 µM); 0.527 in the assay with Omipalisib + Navitoclax (first compound 0.003 µM); 0.552 in the assay with Omipalisib + Navitoclax (first compound 0.03 µM); 0.569 in the assay with Omipalisib + Linsitinib (first compound 0.0003 µM); 0.382 with Omipalisib + Linsitinib (first compound 0.003 µM); 0.394 in the assay with Omipalisib + Linsitinib (first compound 0.03 µM). In addition, the relative viability in the assay with Omipalisib + Dasatinib (first compound 0.0003 µM) was determined as 0.494; in the assay with Omipalisib + Dasatinib (first compound 0.003 µM), 0.37; with Omipalisib + Dasatinib (first compound 0.03 µM), 0.339; in the assay with Omipalisib + Decitabine (first compound 0.0003 µM) it was 0.24; with Omipalisib + Decitabine (first compound 0.003 µM), 0.206; in the assay with Omipalisib + Decitabine (first compound 0.03 µM), 0.227.
